Experimental data taken from PMC3285450 (Journal of Medicinal Chemistry, 2010).

Columns and labels:
[1] = pharmacokinetic screening by oral cassette dosing in mice; details: blood pharmacokinetic profile, Figure S3
in vivo = details: male, CFW, mouse, po, 5 mg/kg
Human sEH = molecular target: T1, Human sEH (Homo sapiens, UniProt P34913); details: for improved potency over compound 40: versus compound 40, reached the LOQ of the in vitro assay
T1 sequence (P34913 1-555): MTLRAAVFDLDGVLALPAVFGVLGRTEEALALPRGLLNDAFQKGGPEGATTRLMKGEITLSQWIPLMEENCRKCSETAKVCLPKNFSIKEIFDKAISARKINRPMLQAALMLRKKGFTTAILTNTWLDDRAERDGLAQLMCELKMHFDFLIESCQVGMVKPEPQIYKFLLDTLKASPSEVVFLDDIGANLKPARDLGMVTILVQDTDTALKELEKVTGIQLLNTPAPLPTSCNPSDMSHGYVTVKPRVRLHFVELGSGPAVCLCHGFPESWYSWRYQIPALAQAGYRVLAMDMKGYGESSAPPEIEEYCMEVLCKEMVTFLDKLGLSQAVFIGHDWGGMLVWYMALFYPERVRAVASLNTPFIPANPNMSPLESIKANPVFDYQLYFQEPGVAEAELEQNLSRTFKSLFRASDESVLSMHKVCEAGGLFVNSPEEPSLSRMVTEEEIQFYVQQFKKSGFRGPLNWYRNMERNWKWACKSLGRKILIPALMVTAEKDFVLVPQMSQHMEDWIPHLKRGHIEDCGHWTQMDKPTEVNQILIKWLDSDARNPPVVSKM

murine sEH = molecular target: T2, murine sEH (Mus musculus, UniProt P34914); test: fluorescent
T2 sequence (P34914 1-554): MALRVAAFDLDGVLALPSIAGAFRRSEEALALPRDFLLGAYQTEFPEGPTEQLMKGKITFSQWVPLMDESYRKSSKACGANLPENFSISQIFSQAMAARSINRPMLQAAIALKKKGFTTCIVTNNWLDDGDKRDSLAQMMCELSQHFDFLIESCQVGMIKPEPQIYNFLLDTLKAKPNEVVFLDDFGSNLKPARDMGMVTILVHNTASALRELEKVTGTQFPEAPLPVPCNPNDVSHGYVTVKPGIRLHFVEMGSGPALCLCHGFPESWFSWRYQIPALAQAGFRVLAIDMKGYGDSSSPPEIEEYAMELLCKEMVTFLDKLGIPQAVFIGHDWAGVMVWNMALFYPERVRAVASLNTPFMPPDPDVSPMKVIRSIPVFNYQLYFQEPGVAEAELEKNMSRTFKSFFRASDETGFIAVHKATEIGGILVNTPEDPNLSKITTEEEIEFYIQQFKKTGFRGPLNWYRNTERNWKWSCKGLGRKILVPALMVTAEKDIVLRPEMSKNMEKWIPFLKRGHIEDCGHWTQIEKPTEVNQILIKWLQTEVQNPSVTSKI

[2] = tested on: carrageenan induced inflammatory pain; format: in vivo, Male Sprague-Dawley rats; details: for reversal of carrageenan induced pain (mechanical withdrawal threshold): rats, intraplantar, 3 hr after carrageenan, sEHi 10 ng/paw, morphine 10,000 ng/paw, n=6
hydrolytic stability = format: physicochemical

SMILES: CC(=O)N1CCC(NC(=O)NC23CC4CC(CC(C4)C2)C3)CC1 [APAU]
- AUC [1]: small
- halflife [1]: very short

SMILES: O=C(O)CCCCCCCCCCCNC(=O)NC12CC3CC(CC(C3)C1)C2 [AUDA, 12-(3-adamantane-1-yl-ureido)dodecanoic acid, reference compound]
- AUC(0-t) (in vivo): 0.05 µM·h

SMILES: CCC(=O)N1CCC(NC(=O)Nc2ccccc2)CC1 [Compound 7]
- drop in potency against the human enzyme versus cyclohexyl compound 4 (Human sEH; versus compound 4): 11 fold

SMILES: CCC(=O)N1CCC(NC(=O)Nc2cccc(F)c2)CC1 [Compound 28]
- lower IC50 than para-fluorophenyl 24, human enzyme (Human sEH; versus compound 24): 2 fold
- lower IC50 than para-fluorophenyl 24, murine enzyme (murine sEH; versus compound 24): 5 fold

SMILES: O=C(Nc1ccc(OC(F)(F)F)cc1)NC1CCN(C(=O)C2CC2)CC1 [Compound 52, 1-(1-(cyclopropanecarbonyl)piperidin-4-yl)-3-(4-(trifluoromethoxy)phenyl)urea]
- increase in potency over adamantane analogue 2 (Human sEH; versus compound 2): 7 fold
- improved potency over compound 40 (Human sEH): approximately 9 fold
- AUC(0-t) (in vivo): 164 µM·h
- Cmax (in vivo): 8.9 µM
- Tmax (in vivo): 3.17 h
- half-life (in vivo): 19.7 h
- increase in potency compared to morphine, reducing hyperalgesia ([2]; mechanical withdrawal threshold, carrageenan model): 1000 fold
- reversal of carrageenan induced pain (mechanical withdrawal threshold) [2]: significantly reversed carrageenan induced pain
- improvement from AUDA, exposure in murine blood and murine potency data (murine sEH; Figure S5, versus AUDA): 10^5

SMILES: O=C(Nc1ccc(OC(F)(F)F)cc1)NC1CCN(C(=O)C(F)(F)F)CC1 [Compound 53]
- improved potency over compound 40 (Human sEH): approximately 9 fold
- hydrolytic stability (hydrolytic stability): hydrolytic instability

SMILES: CN1CC[C@]23c4c5ccc(O)c4O[C@H]2[C@@H](O)C=C[C@H]3[C@H]1C5 [morphine, reference compound]
- reversal of carrageenan induced pain (mechanical withdrawal threshold) [2]: significantly reversed carrageenan induced pain
